Assay results as given in the supplement of paper PMC8024199.
± gives the standard deviation of the averaged measurements.

Assays:
Assay in all cases: drug sensitivity score (DSS) (DSS score); higher = more sensitive (stronger growth inhibition); extreme values may be limits of the assay
[1] = test system: Ba/F3 P210-BCR-ABL1 RUNX1-/- (mouse)
How it was run: (§1)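 A drug sensitivity score summarised each dose-response curve, with luminescence from CellTiter-Glo scaled between vehicle and positive-control wells. Values are the mean of two replicates. The cells were mouse Ba/F3 clones that were CRISPR/Cas9-edited at a target exon or were edited controls, exposed on pre-printed 384-well plates to a 528-compound library at five concentrations spanning a 10,000-fold range. Plates held 10,000 cells per well in RPMI with 10% FBS for 72 h at 37 °C and 5% CO2.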

[2] = test system: Ba/F3 P210-BCR-ABL1 RUNX1wt/wt control (mouse)
How it was run: as §1

[3] = test system: Ba/F3 P210-BCR-ABL1 RUNX1-/mut (mouse)
How it was run: as §1

SMILES	drug sensitivity score [1]	drug sensitivity score [2]	drug sensitivity score [3]
C[C@H]1O[C@@H](O[C@H]2[C@@H](O)C[C@H](O[C@H]3[C@@H](O)C[C@H](O[C@H]4CC[C@@]5(C)[C@H](CC[C@@H]6[C@@H]5C[C@@H](O)[C@]5(C)[C@@H](C7=CC(=O)OC7)CC[C@]65O)C4)O[C@@H]3C)O[C@@H]2C)C[C@H](O)[C@@H]1O [Digoxin]	0	0	0.05 ± 0.071
NC(=S)N/N=C/c1ncccc1N [Triapine]	5.6 ± 0.28	4.65 ± 0.071	5.05 ± 0.071
O=C(c1ccc(OCCN2CCCCC2)cc1)c1c(-c2ccc(O)cc2)sc2cc(O)ccc12 [Raloxifene]	5.4 ± 2.3	3.7 ± 1.8	5.05 ± 3.3
COc1cccc(OCCCN)c1-c1cc(Nc2cnc(C#N)cn2)n[nH]1 [Prexasertib]	32.5 ± 2.5	30.4 ± 1.3	31.4
C[C@H]1CN(C2COC2)CCN1c1ccc(Nc2cc(-c3ccnc(N4CCn5c(cc6c5CC(C)(C)C6)C4=O)c3CO)cn(C)c2=O)nc1 [GDC-0853]	0	0	0
Cc1cc(Nc2cc(N3CCN(C)CC3)nc(/C=C/c3ccccc3)n2)n[nH]1 [ENMD-2076]	9.4 ± 0.28	5.5 ± 0.85	8.45 ± 0.35
CN1C(=O)N[C@H](Cc2c[nH]c3c(Cl)cccc23)C1=O [Necrostatin 2]	0	0	0
CCS(=O)(=O)N1CCN(c2ccc(Nc3ncc(C(N)=O)c(NC4CC4)n3)cc2)CC1 [Cerdulatinib]	14.8 ± 0.64	9.5 ± 0.42	13.1 ± 1.6
CN[C@@H](C)C(=O)N[C@H]1CN(C(=O)CC(C)C)CC[C@H]2CC[C@@H](C(=O)NC(c3ccccc3)c3ccccc3)N2C1=O [AT-406]	18.4 ± 1.8	13 ± 1.4	4.4 ± 6.2
CC(C)C[C@H](NC(=O)CNC(=O)c1cc(Cl)ccc1Cl)B(O)O [Ixazomib]	13.5 ± 2.4	13.7 ± 1.4	8.95 ± 1.2
O=C(c1ccc(C(=O)N2CCC(N3CCCC3)CC2)c(Nc2ccccc2)c1)N1CCC(N2CCCC2)CC1 [UNC1215]	0	0	0
CCN(CC)CCCC(C)Nc1ccnc2cc(Cl)ccc12 (configuration not stated) [Chloroquine]	13.2 ± 5.2	5.8 ± 0.28	14.9 ± 5.6
Cc1ccc(NC(=O)c2ccc(CN3CC[C@H](N(C)C)C3)c(C(F)(F)F)c2)cc1Nc1nccc(-c2cncnc2)n1 [Bafetinib]	26.55 ± 0.21	16.3	19.9 ± 1.5
COc1cc(Nc2ncc(F)c(Nc3ccc4c(n3)NC(=O)C(C)(C)O4)n2)cc(OC)c1OC [Tamatinib]	7.15 ± 0.78	5.8 ± 0.28	4.15 ± 0.071
O=C(NC[C@H](O)CN1CCc2ccccc2C1)c1cc(NC2COC2)ncn1	7.8 ± 1.3	0	5.2 ± 3.5
O=C(Nc1cccc(NC(=O)c2cccc(O)c2O)c1)c1cccc(O)c1O [MST-312]	16.6 ± 0.21	17.2 ± 0.42	17.1 ± 2
COc1ccc(C[C@H](NC(=O)[C@H](C)NC(=O)CN2CCOCC2)C(=O)N[C@@H](Cc2ccccc2)C(=O)C2(C)CO2)cc1 (stereo in doubt) [ONX-0914]	22.05 ± 0.21	17.8 ± 0.28	23.2 ± 2.6
O=C(NOCCO)c1ccc2cncn2c1Nc1ccc(I)cc1F [GDC-0623]	10.8 ± 8.1	0.55 ± 0.78	3.7 ± 3.7
NC[C@@](O)(c1ccc(Cl)cc1)c1ccc(-c2cn[nH]c2)cc1	1.25 ± 1.8	1.55 ± 0.78	0.05 ± 0.071
Cc1c(C(=O)Nc2ccc(N3C[C@@H](C)O[C@@H](C)C3)nc2)cccc1-c1ccc(OC(F)(F)F)cc1 [Sonidegib]	1.3 ± 1.8	0.15 ± 0.21	1.3 ± 1.8
CN(C(=O)c1ccc(F)cc1C(F)(F)F)C1CCN(c2nnc(-c3ccnn3C)c3ccccc23)CC1 [Taladegib]	0.85 ± 1.2	0	1.8 ± 2.5
O=C(CCCCCCNC(=O)c1cnc(N(c2ccccc2)c2ccccc2)nc1)NO [Rocilinostat]	10.2 ± 1.5	6.25 ± 0.071	9.05 ± 2.2

SMILES	drug sensitivity score [1]	drug sensitivity score [2]	drug sensitivity score [3]
CN(C)CCOc1ccc(/C(=C(/CCCl)c2ccccc2)c2ccccc2)cc1 [Toremifene]	5.9 ± 1.7	4.85 ± 0.35	6.9 ± 2.7
CC[C@@H]1CN(C(=O)NCC(F)(F)F)C[C@@H]1c1cnc2cnc3[nH]ccc3n12 [Upadacitinib]	0.75 ± 1.1	5.35 ± 3	0.05 ± 0.071
C=CC(=O)Nc1cc(Nc2nccc(-c3cn(C)c4ccccc34)n2)c(OC)cc1N(C)CCN(C)C [Osimertinib]	5.6 ± 0.28	1.25 ± 1.2	5.6 ± 0.57
CC[C@H](CC#N)OC(=O)N[C@@H](C)c1cccc(NC(=O)Nc2ccc(-c3cnco3)c(OC)c2)c1 [AVN944]	25.9 ± 0.42	21.7 ± 1.6	24.95 ± 0.21
COCC[n+]1c2c(n(Cc3cnccn3)c1C)C(=O)c1ccccc1C2=O [Sepantronium bromide]	12.9 ± 1.5	6.85 ± 0.49	17.1 ± 1.1
CC1(C)CCC(CN2CCN(c3ccc(C(=O)NS(=O)(=O)c4ccc(NCC5CCOCC5)c([N+](=O)[O-])c4)c(Oc4cnc5[nH]ccc5c4)c3)CC2)=C(c2ccc(Cl)cc2)C1 [Venetoclax]	0	1.4 ± 1.4	1.05 ± 1.5
CO[C@H]1C[C@@H]2CC[C@@H](C)[C@@](O)(O2)C(=O)C(=O)N2CCCC[C@H]2C(=O)O[C@H]([C@H](C)C[C@@H]2CC[C@@H](O)[C@H](OC)C2)CC(=O)[C@H](C)/C=C(\C)[C@@H](O)[C@@H](OC)C(=O)[C@H](C)C[C@H](C)/C=C/C=C/C=C/1C [Sirolimus]	7.6 ± 1.7	0.5 ± 0.71	8.4 ± 3.4
CC(C)N(CCCNC(=O)Nc1ccc(C(C)(C)C)cc1)C[C@H]1O[C@@H](n2cc(Br)c3c(N)ncnc32)[C@H](O)[C@@H]1O [SGC0946]	3.45 ± 2.3	0	3.7 ± 5.2
COC(=O)N[C@@H](C)CNc1nccc(-c2cn(C(C)C)nc2-c2cc(Cl)cc(NS(C)(=O)=O)c2F)n1 [Encorafenib]	1.35 ± 0.071	0.05 ± 0.071	2.15 ± 0.64
CCCCOc1nc(N)c2c(n1)N(Cc1cccc(CN3CCCC3)c1)CC(=O)N2 [Vesatolimod]	2.65 ± 3.8	1.65 ± 0.35	3.25 ± 3.8
COC(=O)C[C@](O)(CCCC(C)(C)O)C(=O)O[C@@H]1C(OC)=C[C@]23CCCN2CCc2cc4c(cc2[C@H]13)OCO4 [Omacetaxine]	33.8 ± 2.5	28.8 ± 0.92	35.4 ± 3.7
CC(C)C[C@H](NC(=O)[C@@H](COC(C)(C)C)NC(=O)[C@H](Cc1ccc(O)cc1)NC(=O)[C@H](CO)NC(=O)[C@H](Cc1c[nH]c2ccccc12)NC(=O)[C@H](Cc1cnc[nH]1)NC(=O)[C@@H]1CCC(=O)N1)C(=O)N[C@@H](CCCNC(=N)N)C(=O)N1CCC[C@H]1C(=O)NNC(N)=O [Goserelin]	0	0	0.4
CCS(=O)(=O)Nc1ccc(Oc2ccc(F)cc2F)c(-c2cn(C)c(=O)c3[nH]ccc23)c1 [Mivebresib]	41.35 ± 0.21	34 ± 1.3	41 ± 2
CC[C@H](Nc1ncnc2[nH]cnc12)c1nc2cccc(F)c2c(=O)n1-c1ccccc1 [Idelalisib]	4.7 ± 2.5	0	2.3 ± 2.5
O=C(NC1CCNCC1)c1n[nH]cc1NC(=O)c1c(Cl)cccc1Cl [AT7519]	11.7 ± 3.6	2.8 ± 0.42	13.6 ± 4
Cn1cnc2c(F)c(Nc3ccc(Br)cc3F)c(C(=O)NOCCO)cc21 [Binimetinib]	3.3 ± 0.42	0	0.3 ± 0.42
COc1cc(OC)cc(N(CCNC(C)C)c2ccc3ncc(-c4cnn(C)c4)nc3c2)c1 [Erdafitinib]	1.5 ± 0.14	0	0
N#Cc1ccnc(N2C(=O)CC[C@H]2C(=O)N(c2cncc(F)c2)[C@H](C(=O)NC2CC(F)(F)C2)c2ccccc2Cl)c1 [Ivosidenib]	0.3 ± 0.42	0	1.35 ± 1.9
C[C@@H]1COC(Nc2ccc3ncnc(Nc4ccc(OCc5nccs5)c(Cl)c4)c3c2)=N1 [Varlitinib]	1.35 ± 1.9	0	1.15 ± 1.6
Cc1nc2cccc(N)c2c(=O)n1C1CCC(=O)NC1=O (configuration not stated) [CC122]	0	0	0
COc1ccc(CCc2nc3cc(-c4c(C)noc4C)ccc3n2C[C@H](C)N2CCOCC2)cc1Cl [SGC-CBP30]	10.2 ± 2.8	5.5 ± 0.28	12.7 ± 4.6
CC(C)(O)CNc1nc(Nc2ccnc(C(F)(F)F)c2)nc(-c2cccc(C(F)(F)F)n2)n1 [Enasidenib]	0.4 ± 0.14	0	0.55 ± 0.78
